The target in the experiment is T1, hMC2 receptor (crude hMC2R membranes from CRE-bla-CHO-K1 cells stably expressing hMC2 receptor and hMRAP accessory protein) (Homo sapiens, UniProt Q01718).
T1 construct: crude membrane fractions
T1 sequence (Q01718 whole entry): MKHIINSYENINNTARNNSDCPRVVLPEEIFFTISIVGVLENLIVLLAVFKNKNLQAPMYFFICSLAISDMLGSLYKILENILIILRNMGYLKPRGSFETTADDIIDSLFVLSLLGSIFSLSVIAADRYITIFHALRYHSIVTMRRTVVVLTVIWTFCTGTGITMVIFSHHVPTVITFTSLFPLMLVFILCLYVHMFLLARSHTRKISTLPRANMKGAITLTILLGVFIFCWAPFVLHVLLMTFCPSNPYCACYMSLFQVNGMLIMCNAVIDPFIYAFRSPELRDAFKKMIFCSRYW
T1 sequence (Q8TCY5 whole entry partner): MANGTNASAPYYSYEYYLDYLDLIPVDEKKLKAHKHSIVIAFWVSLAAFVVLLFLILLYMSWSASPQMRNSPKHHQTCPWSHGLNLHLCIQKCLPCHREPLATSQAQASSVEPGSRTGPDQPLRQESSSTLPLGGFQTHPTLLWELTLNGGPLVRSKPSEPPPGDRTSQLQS
The experiment in a line: hMC2 membrane binding assay ([125I]ACTH (1-39) Tyr23, SPA). The following applies: displacement of 0.2 nM [125I]ACTH (1-39) Tyr23 from hMC2R membranes, 1.5 hours at room temperature; read-out: MC2R binding potency. The gist of the method:
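Crude membranes from CRE-bla-CHO-K1 cells stably co-expressing hMC2R and hMRAP, premixed with WGA PVT SPA beads in pH 7.4 HEPES buffer (5 mM MgCl2, 1 mM CaCl2, 0.20% BSA, protease inhibitors). Compounds compete with [125I]ACTH(1-39) Tyr23, read by scintillation. Ki from non-linear regression.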
For the compound `CCOc1ccccc1-c1ccc(C2(NC(=O)[C@H]3CCN(C)C3)CCN(c3ccc(C(F)(F)F)cc3C#N)CC2)cn1` [Compound 2-27, (3S)—N-{1-[2-cyano-4-(trifluoromethyl)phenyl]-4-[6-(2-ethoxyphenyl)pyridin-3-yl]piperidin-4-yl}-1-methylpyrrolidine-3-carboxamide], the Ki is below 10 nM.
With `CCOc1ncccc1-c1ncc(C2(C(=O)N[C@@H](C)CNC)CCN(c3ccc(C(F)(F)F)cc3C#N)CC2)cc1F` [Compound 1-320, 1-[2-cyano-4-(trifluoromethyl)phenyl]-4-{2′-ethoxy-3-fluoro-[2,3′-bipyridin]-5-yl}-N-[(2S)-1-(methylamino)propan-2-yl]piperidine-4-carboxamide] the figure was below 10 nM; with `COc1ccccc1-c1ccc(C2(C(=O)NC[C@@H]3C[C@@H](F)CN3C)CCN(c3ccc(C(F)(F)F)cc3C#N)CC2)cn1` [Compound 1-250, 1-[2-cyano-4-(trifluoromethyl)phenyl]-N-{[(2S,4R)-4-fluoro-1-methylpyrrolidin-2-yl]methyl}-4-[6-(2-methoxyphenyl)pyridin-3-yl]piperidine-4-carboxamide], below 10 nM.
With `CNC[C@H](C)NC(=O)C1(c2ccc(-c3cccnc3OC)nc2)CCN(c2ccc(C(F)(F)F)cc2F)CC1` [Compound 1-306, 1-[2-fluoro-4-(trifluoromethyl)phenyl]-4-{2′-methoxy-[2,3′-bipyridin]-5-yl}-N-[(2S)-1-(methylamino)propan-2-yl]piperidine-4-carboxamide] the figure was below 10 nM.
As to `CN1CC[C@@H](NC(=O)C2(c3ccc(-c4cccc5ccn(C)c45)nc3)CCN(c3ccc(C(F)(F)F)cc3C#N)CC2)C1` [Compound 1-190, 1-[2-cyano-4-(trifluoromethyl)phenyl]-4-[6-(1-methyl-1H-indol-7-yl)pyridin-3-yl]-N-[(3R)-1-methylpyrrolidin-3-yl]piperidine-4-carboxamide], the Ki fell in the range of 10 to 100 nM.
As to `COc1ncc(F)cc1-c1ccc(C2(C(=O)N[C@@H]3CCN(C)C3)CCN(c3ccc(C(F)(F)F)cc3C#N)CC2)cn1` [Compound 1-86, 1-[2-cyano-4-(trifluoromethyl)phenyl]-4-{5′-fluoro-2′-methoxy-[2,3′-bipyridin]-5-yl}-N-[(3R)-1-methylpyrrolidin-3-yl]piperidine-4-carboxamide], the Ki was below 10 nM.
On to `CCc1ncccc1-c1ccc(C2(C(=O)N[C@@H]3CCN(C)C3)CCN(c3ccc(C(F)(F)F)cc3C#N)CC2)cn1` [Compound 1-118, 1-[2-cyano-4-(trifluoromethyl)phenyl]-4-{2′-ethyl-[2,3′-bipyridin]-5-yl}-N-[(3R)-1-methylpyrrolidin-3-yl]piperidine-4-carboxamide], for which the Ki is below 10 nM.
With `CN1CC[C@@H](NC(=O)C2(c3ccc(-c4cc5ccccc5n4C)nc3)CCN(c3ccc(C(F)(F)F)cc3C#N)CC2)C1` [Compound 1-191, 1-[2-cyano-4-(trifluoromethyl)phenyl]-4-[6-(1-methyl-1H-indol-2-yl)pyridin-3-yl]-N-[(3R)-1-methylpyrrolidin-3-yl]piperidine-4-carboxamide] the figure was 10 to 100 nM.
In the case of `CN1CC[C@@H](NC(=O)C2(c3ccc(-c4ccccc4C#N)nc3)CCN(c3ccc(C(F)(F)F)cc3C#N)CC2)C1` [Compound 1-78, 1-[2-cyano-4-(trifluoromethyl)phenyl]-4-[6-(2-cyanophenyl)pyridin-3-yl]-N-[(3R)-1-methylpyrrolidin-3-yl]piperidine-4-carboxamide], the Ki was below 10 nM.
With `COc1ccccc1-c1ccc(C2(NC(=O)O[C@@H]3CCN(C)C3)CCN(c3ccc(C(F)(F)F)cc3C#N)CC2)cn1` [Compound 2-54, (3R)-1-methylpyrrolidin-3-yl N-{1-[2-cyano-4-(trifluoromethyl)phenyl]-4-[6-(2-methoxyphenyl)pyridin-3-yl]piperidin-4-yl}carbamate] the figure was below 10 nM; with `COc1ccccc1-c1ccc(C2(C(=O)NC3CN(C)C3)CCN(c3ccc(Cl)cc3C#N)CC2)cn1` [Compound 1-92, 1-(4-chloro-2-cyanophenyl)-4-[6-(2-methoxyphenyl)pyridin-3-yl]-N-(1-methylazetidin-3-yl)piperidine-4-carboxamide], below 10 nM; with `CCOc1ncccc1-c1ccc(C2(C(=O)N[C@H]3CCN(C)C3)CCN(c3ccc(C(F)(F)F)cc3C#N)CC2)nn1` [Compound 1-56, 1-[2-cyano-4-(trifluoromethyl)phenyl]-4-[6-(2-ethoxypyridin-3-yl)pyridazin-3-yl]-N-[(3S)-1-methylpyrrolidin-3-yl]piperidine-4-carboxamide], below 10 nM.
For `CCOc1ncccc1-c1ccc(C2(C(=O)N[C@@H]3CCNC3)CCN(c3ccc(C(F)(F)F)cc3C#N)CC2)nc1` [Compound 1-21, 1-[2-cyano-4-(trifluoromethyl)phenyl]-4-{2′-ethoxy-[3,3′-bipyridin]-6-yl}-N-[(3R)-pyrrolidin-3-yl]piperidine-4-carboxamide], the Ki is below 10 nM.
With `Cc1nocc1-c1ccc(C2(C(=O)N[C@H]3CCN(C)C3)CCN(c3ccc(C(F)(F)F)cc3C#N)CC2)cn1` [Compound 1-149, 1-[2-cyano-4-(trifluoromethyl)phenyl]-4-[6-(3-methyl-1,2-oxazol-4-yl)pyridin-3-yl]-N-[(3S)-1-methylpyrrolidin-3-yl]piperidine-4-carboxamide] the figure was below 10 nM; with `CCOc1ncccc1-c1ccc(C2(C(=O)N[C@H]3CCN(C)C3)CCN(c3ccc(C(F)(F)F)cc3C#N)CC2)cn1` [Compound 1-11, 1-[2-cyano-4-(trifluoromethyl)phenyl]-4-{2′-ethoxy-[2,3′-bipyridin]-5-yl}-N-[(3S)-1-methylpyrrolidin-3-yl]piperidine-4-carboxamide], below 10 nM; with `CO[C@@H]1CN(C)C[C@H]1NC(=O)C1(c2ccc(-c3cccn3C)nc2)CCN(c2ccc(C(F)(F)F)cc2C#N)CC1` (racemic) [Compound 1-268, rac-1-[2-cyano-4-(trifluoromethyl)phenyl]-N-[(3R,4R)-4-methoxy-1-methylpyrrolidin-3-yl]-4-[6-(1-methyl-1H-pyrrol-2-yl)pyridin-3-yl]piperidine-4-carboxamide], below 10 nM.
For `COc1ccccc1-c1ccc(C2(NC(=O)NC3CN(C)C3)CCN(c3ccc(C(F)(F)F)cc3C#N)CC2)cn1` [Compound 2-59, 1-{1-[2-cyano-4-(trifluoromethyl)phenyl]-4-[6-(2-methoxyphenyl)pyridin-3-yl]piperidin-4-yl}-3-(1-methylazetidin-3-yl)urea], the Ki lay in the range of 10 to 100 nM.
For `CCc1sccc1-c1ccc(C2(C(=O)N[C@H]3CCN(C)C3)CCN(c3ccc(C(F)(F)F)cc3C#N)CC2)cn1` [Compound 1-147, 1-[2-cyano-4-(trifluoromethyl)phenyl]-4-[6-(2-ethylthiophen-3-yl)pyridin-3-yl]-N-[(3S)-1-methylpyrrolidin-3-yl]piperidine-4-carboxamide], the Ki is below 10 nM.
With `CCOc1ccccc1-c1ncc(C2(C(=O)N[C@H]3CCN(C)C3)CCN(c3ccc(C(F)(F)F)cc3F)CC2)cc1F` [Compound 1-200, 4-[6-(2-ethoxyphenyl)-5-fluoropyridin-3-yl]-1-[2-fluoro-4-(trifluoromethyl)phenyl]-N-[(3S)-1-methylpyrrolidin-3-yl]piperidine-4-carboxamide] the figure was below 10 nM.
With `CCOc1ncccc1-c1ccc(C2(C(=O)N[C@@H]3CCN(C)C3)CCN(c3ccc(C(F)(F)F)cc3C#N)CC2)cc1` [Compound 1-1, 1-[2-cyano-4-(trifluoromethyl)phenyl]-4-[4-(2-ethoxypyridin-3-yl)phenyl]-N-[(3R)-1-methylpyrrolidin-3-yl]piperidine-4-carboxamide] the figure was below 10 nM; with `CN1CC[C@H](NC(=O)NC2(c3ccc(-c4cccn4C)nc3)CCN(c3ccc(C(F)(F)F)cc3C#N)CC2)C1` [Compound 2-43, 1-{1-[2-cyano-4-(trifluoromethyl)phenyl]-4-[6-(1-methyl-1H-pyrrol-2-yl)pyridin-3-yl]piperidin-4-yl}-3-[(3S)-1-methylpyrrolidin-3-yl]urea], below 10 nM.
Regarding `CCOc1ccccc1-c1ccc(C2(NC(=O)C3CN(C)C3)CCN(c3ccc(Cl)cc3C#N)CC2)cn1` [Compound 2-25, N-[1-(4-chloro-2-cyanophenyl)-4-[6-(2-ethoxyphenyl)pyridin-3-yl]piperidin-4-yl]-1-methylazetidine-3-carboxamide], the Ki is below 10 nM.
For `COc1ccccc1-c1ncc(C2(NC(=O)O[C@H]3CCN(C)C3)CCN(c3ccc(C(F)(F)F)cc3C#N)CC2)cc1F` [Compound 2-49, (3S)-1-methylpyrrolidin-3-yl N-{1-[2-cyano-4-(trifluoromethyl)phenyl]-4-[5-fluoro-6-(2-methoxyphenyl)pyridin-3-yl]piperidin-4-yl}carbamate], the Ki is below 10 nM.
With `CCOC(=O)N1CC[C@H](NC(=O)C2(c3ccc(-c4cccn4C)nc3)CCN(c3ccc(C(F)(F)F)cc3C#N)CC2)C1` [Compound 1-184, ethyl (3S)-3-{1-[2-cyano-4-(trifluoromethyl)phenyl]-4-[6-(1-methyl-1H-pyrrol-2-yl)pyridin-3-yl]piperidine-4-amido}pyrrolidine-1-carboxylate] the figure was 100 to 1000 nM; with `COc1ccccc1-c1ccc(C2(C(=O)NC[C@@H]3C[C@H](F)CN3)CCN(c3ccc(C(F)(F)F)cc3C#N)CC2)cn1` [Compound 1-246, 1-[2-cyano-4-(trifluoromethyl)phenyl]-N-{[(2S,4S)-4-fluoropyrrolidin-2-yl]methyl}-4-[6-(2-methoxyphenyl)pyridin-3-yl]piperidine-4-carboxamide], below 10 nM; with `Cn1cccc1-c1ccc(C2(C(=O)N[C@H]3C[C@H](N(C)C)C3)CCN(c3ccc(C(F)(F)F)cc3C#N)CC2)cn1` [Compound 1-240, 1-[2-cyano-4-(trifluoromethyl)phenyl]-4-[6-(1-methyl-1H-pyrrol-2-yl)pyridin-3-yl]-N-[(1R,3R)-3-(dimethylamino)cyclobutyl]piperidine-4-carboxamide], 10 to 100 nM.

The values are drawn from patent US12492181B2, “Gem-disubstituted piperidine melanocortin subtype-2 receptor (MC2R) antagonists and uses thereof” (Crinetics Pharmaceuticals, Inc., priority 2019, dated 2025).
